Results taken from US5242934A, “Method for treatment of neurodegenerative diseases” (R. J. Reynolds Tobacco Company, priority 1992, dated 1993).

Columns and labels:
[1] = target: high affinity nicotinic receptors; test: Inhibition of L-[3H]nicotine binding to mouse brain membrane preparations; parameters: species or system Mice (DBA strain); conditions: mouse brain membranes, 2 hr incubation at 4° C., 10 nM L-[3H]nicotine, Ki calculated from IC50 by method of Cheng et al.
Procedure: Mice (DBA strain) were maintained on a 12 hour light/dark cycle and were allowed free access to water and food supplied by Wayne Lab Blox, Madison, Wis. Animals used in the present studies were 60 to 90 days of age and weighed 20 to 25 g. Brain membrane preparations were obtained from pooled brain tissue of both males and females.
Mice were killed by cervical dislocation. Brains were removed and placed on an ice-cold platform. […] Protein was determined by the method of Lowry, et al., J. Biol. Chem., Vol. 193, pp. 265-275 (1951), using bovine serum albumin as the standard.
The binding of L-[^3 H]nicotine was measured using a modification of the method of Romano, et al., Science, Vol. 210, pp. 647-650 (1980) as described previously by Marks, et al., Mol. Pharmacol., Vol. 30, pp. 427-436 (1986). The binding of L-[^3 H]nicotine was measured using a 2 hr. incubation at 4° C. […] Nonspecific binding was determined by inclusion of 10 μM nonradioactive nicotine in the incubations. The inhibition of L-[^3 H]nicotine binding by test compounds was determined by including one of eight different concentrations of the test compound in the incubation. […] Inhibition constants (Ki values) were calculated from the IC50 values using the method of Cheng, et al., Biochem. Pharmacol., Vol. 22, pp. 3099-3108 (1973). […]

[2] = system: synaptosomes from the striatal area of rat brain; test: [3H]-dopamine release from rat striatal synaptosomes; format: biochemical, Sprague-Dawley rats; conditions: 0.2 ml of a 20 μM solution of ligand, relative to equal concentration of S(-) nicotine
Procedure: Dopamine release was measured by preparing synaptosomes from the striatal area of rat brain obtained from Sprague-Dawley rats generally according to the procedures set forth by Nagy, et al., J. Neurochem., Vol. 43, pp. 1114-1123 (1984). Striata from 4 rats were homogenized in 2 ml of 0.32M sucrose buffered with 5 mM HEPES (pH 7.5), using a glass-teflon tissue grinder. The homogenate was diluted to 5 ml with additional homogenization solution and centrifuged at 1000×g for 10 min. This procedure was repeated on the new pellet and the resulting supernatant was centrifuged at 12,000×g for 20 min. […] Using this method, 30 to 90 percent of the dopamine was taken up into the synaptosomes, as determined by scintillation counting following filtration through glass fiber filters soaked with 0.5 percent polyethyleneimine. […] After the addition of a 0.2 ml of a 20 μM solution of ligand, the perfusate was collected into scintillation vials at 1 min. intervals and the dopamine released was quantified by scintillation counting. Peaks of radioactivity released above background were summed and the average basal release during that time was subtracted from the total. Release was expressed as a percentage of release obtained with an equal concentration of S(-) nicotine.

CN1CCCC1c1ccncc1 (centres unmarked) [gamma-nicotine]
Ki [1]: 1100 ± 100 nM | Dopamine Release (Percent release relative to S(-) nicotine) [2]: 45%
